Experiments:
Test in all cases: KINOMEscan competition binding
Conditions in all cases: compound 10.0 µM
[1] = test system: ABL1 (human), P00519 [E255K]
[2] = test system: ABL1 (human), P00519 [M351T]
[3] = test system: EGFR (human), P00533 [746-750 del]
[4] = test system: EGFR (human), P00533 [G719S]
[5] = test system: EGFR (human), P00533 [L861Q]
[6] = test system: EGFR (human), P00533 [P753S; 747-752 del]
[7] = test system: EIF2AK4 KD2 (human), Q9P2K8 [S808G]
[8] = test system: FLT3 (human), P36888 [ITD]
[9] = test system: FLT3 (human), P36888 [K663Q]
[10] = test system: FLT3 (human), P36888 [N841I]
[11] = test system: KIT (human), P10721 [D816V]
[12] = test system: KIT (human), P10721 [V559D/T670I]
[13] = test system: KIT (human), P10721 [V559D]
[14] = test system: PIK3CA (human), P42336 [C420R]
[15] = test system: PIK3CA (human), P42336 [E545A]
[16] = test system: PIK3CA (human), P42336 [E545K]
[17] = test system: PIK3CA (human), P42336 [H1047Y]
[18] = test system: PIK3CA (human), P42336 [I800L]
[19] = test system: PIK3CA (human), P42336 [Q546K]
Chain of PIK3CA (human), P42336 [Q546K] (P42336 whole entry Q546K, looked up): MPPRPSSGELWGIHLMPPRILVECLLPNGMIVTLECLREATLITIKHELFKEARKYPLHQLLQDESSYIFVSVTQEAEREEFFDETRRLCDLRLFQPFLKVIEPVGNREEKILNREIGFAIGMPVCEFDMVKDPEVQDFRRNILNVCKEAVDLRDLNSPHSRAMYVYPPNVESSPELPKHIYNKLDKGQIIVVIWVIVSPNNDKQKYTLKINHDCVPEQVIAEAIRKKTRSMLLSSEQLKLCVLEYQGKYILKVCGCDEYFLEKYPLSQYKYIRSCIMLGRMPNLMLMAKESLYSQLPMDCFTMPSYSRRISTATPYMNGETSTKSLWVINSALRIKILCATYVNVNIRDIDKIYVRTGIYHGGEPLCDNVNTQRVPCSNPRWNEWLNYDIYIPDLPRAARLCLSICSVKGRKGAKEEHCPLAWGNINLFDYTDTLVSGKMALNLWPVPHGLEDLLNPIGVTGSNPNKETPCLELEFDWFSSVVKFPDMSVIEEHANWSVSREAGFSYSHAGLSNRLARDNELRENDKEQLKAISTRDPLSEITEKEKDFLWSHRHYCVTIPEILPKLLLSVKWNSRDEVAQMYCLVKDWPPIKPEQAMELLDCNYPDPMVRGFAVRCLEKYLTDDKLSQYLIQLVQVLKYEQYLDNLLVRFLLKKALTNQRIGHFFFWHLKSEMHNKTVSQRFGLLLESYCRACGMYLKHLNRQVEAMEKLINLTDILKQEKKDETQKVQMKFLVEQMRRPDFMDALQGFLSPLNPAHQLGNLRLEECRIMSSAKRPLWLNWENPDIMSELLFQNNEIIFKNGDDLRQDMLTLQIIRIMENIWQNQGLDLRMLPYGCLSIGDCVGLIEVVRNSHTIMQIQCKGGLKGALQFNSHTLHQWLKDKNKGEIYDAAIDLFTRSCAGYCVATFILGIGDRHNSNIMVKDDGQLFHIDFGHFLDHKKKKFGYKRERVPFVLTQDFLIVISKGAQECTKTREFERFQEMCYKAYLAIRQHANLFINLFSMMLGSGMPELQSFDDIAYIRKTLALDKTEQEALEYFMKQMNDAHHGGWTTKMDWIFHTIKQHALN

Chain of KIT (human), P10721 [V559D/T670I] (P10721 whole entry V559D/T670I, looked up): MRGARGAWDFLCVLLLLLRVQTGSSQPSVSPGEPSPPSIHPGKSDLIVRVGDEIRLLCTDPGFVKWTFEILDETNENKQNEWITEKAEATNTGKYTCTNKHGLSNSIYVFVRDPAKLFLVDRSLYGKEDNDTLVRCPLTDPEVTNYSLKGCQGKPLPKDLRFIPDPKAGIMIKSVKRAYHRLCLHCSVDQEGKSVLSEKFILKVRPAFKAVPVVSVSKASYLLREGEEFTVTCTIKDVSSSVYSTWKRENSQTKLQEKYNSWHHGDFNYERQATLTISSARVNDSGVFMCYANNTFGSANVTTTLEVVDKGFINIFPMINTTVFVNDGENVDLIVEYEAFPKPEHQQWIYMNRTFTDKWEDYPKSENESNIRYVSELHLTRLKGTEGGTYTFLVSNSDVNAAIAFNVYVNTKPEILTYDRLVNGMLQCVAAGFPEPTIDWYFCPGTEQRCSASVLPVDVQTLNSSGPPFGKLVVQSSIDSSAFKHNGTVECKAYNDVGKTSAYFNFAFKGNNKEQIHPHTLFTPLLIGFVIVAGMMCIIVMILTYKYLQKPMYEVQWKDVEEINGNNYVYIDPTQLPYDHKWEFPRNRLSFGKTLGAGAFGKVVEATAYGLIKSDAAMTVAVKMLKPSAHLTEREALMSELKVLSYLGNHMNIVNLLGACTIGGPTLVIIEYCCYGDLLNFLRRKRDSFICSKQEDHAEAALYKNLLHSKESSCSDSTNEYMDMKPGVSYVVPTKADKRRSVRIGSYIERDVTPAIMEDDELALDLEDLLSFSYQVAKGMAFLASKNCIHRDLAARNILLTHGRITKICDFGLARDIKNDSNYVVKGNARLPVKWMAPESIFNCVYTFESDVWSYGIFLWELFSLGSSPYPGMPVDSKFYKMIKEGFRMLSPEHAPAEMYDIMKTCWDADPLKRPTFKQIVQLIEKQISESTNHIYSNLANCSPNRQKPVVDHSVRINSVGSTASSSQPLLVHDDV
Chain of EIF2AK4 KD2 (human), Q9P2K8 [S808G] (Q9P2K8 whole entry S808G, looked up): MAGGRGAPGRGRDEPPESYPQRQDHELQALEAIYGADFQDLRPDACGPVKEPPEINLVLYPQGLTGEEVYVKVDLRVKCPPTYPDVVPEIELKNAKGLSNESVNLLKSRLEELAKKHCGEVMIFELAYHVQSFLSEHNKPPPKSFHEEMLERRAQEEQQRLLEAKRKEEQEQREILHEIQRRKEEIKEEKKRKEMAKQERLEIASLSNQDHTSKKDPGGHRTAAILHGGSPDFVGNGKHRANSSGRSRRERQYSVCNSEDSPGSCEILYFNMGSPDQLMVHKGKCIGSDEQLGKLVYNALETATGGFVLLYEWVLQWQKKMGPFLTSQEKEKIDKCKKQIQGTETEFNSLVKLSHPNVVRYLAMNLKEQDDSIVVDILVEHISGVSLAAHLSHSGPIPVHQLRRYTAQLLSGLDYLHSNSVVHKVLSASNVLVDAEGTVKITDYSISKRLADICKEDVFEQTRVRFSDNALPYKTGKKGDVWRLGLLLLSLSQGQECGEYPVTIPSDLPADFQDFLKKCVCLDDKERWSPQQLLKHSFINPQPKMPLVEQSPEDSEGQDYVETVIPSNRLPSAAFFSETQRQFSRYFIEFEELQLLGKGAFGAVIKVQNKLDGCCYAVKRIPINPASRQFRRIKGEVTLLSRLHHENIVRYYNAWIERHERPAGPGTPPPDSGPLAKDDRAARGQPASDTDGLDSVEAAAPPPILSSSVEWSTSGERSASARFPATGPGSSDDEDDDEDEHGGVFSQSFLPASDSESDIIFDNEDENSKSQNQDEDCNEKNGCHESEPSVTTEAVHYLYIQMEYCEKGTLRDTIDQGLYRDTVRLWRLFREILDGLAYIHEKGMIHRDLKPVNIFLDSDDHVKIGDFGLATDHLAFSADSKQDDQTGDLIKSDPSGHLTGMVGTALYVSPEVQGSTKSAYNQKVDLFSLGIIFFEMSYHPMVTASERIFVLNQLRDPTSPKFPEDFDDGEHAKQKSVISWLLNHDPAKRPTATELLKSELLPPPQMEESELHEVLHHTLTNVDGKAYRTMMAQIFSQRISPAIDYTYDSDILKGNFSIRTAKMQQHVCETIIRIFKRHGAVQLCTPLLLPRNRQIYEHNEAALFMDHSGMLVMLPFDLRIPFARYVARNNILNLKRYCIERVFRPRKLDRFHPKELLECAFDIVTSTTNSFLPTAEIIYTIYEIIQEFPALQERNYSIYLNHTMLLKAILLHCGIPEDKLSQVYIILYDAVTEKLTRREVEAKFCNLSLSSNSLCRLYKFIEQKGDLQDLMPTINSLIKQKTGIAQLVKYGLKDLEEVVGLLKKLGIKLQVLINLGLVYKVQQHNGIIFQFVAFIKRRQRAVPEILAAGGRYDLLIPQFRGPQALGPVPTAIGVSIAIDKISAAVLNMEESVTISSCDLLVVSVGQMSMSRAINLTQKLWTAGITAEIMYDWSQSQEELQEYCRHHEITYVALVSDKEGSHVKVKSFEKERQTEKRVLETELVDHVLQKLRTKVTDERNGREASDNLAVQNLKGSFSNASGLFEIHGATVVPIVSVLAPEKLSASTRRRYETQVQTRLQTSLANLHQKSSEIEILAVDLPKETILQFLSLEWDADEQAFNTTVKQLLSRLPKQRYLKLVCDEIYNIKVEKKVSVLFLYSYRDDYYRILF
Chain of PIK3CA (human), P42336 [I800L] (P42336 whole entry I800L, looked up): as the sequence (P42336 whole entry Q546K, looked up) above, with K546Q, I800L counted along it
Chain of PIK3CA (human), P42336 [E545A] (P42336 whole entry E545A, looked up): as the sequence (P42336 whole entry Q546K, looked up) above, with E545A, K546Q counted along it
Chain of PIK3CA (human), P42336 [C420R] (P42336 whole entry C420R, looked up): as the sequence (P42336 whole entry Q546K, looked up) above, with C420R, K546Q counted along it
Chain of KIT (human), P10721 [D816V] (P10721 whole entry D816V, looked up): as the sequence (P10721 whole entry V559D/T670I, looked up) above, with D559V, I670T, D816V counted along it
Chain of PIK3CA (human), P42336 [H1047Y] (P42336 whole entry H1047Y, looked up): as the sequence (P42336 whole entry Q546K, looked up) above, with K546Q, H1047Y counted along it
Chain of KIT (human), P10721 [V559D] (P10721 whole entry V559D, looked up): as the sequence (P10721 whole entry V559D/T670I, looked up) above, with I670T counted along it
Chain of PIK3CA (human), P42336 [E545K] (P42336 whole entry E545K, looked up): as the sequence (P42336 whole entry Q546K, looked up) above, with E545K, K546Q counted along it

C=CC(=O)Nc1ccc(C(=O)c2sc(Nc3ccc(N4CCN(C)CC4)cc3OC)nc2N)cc1
kinase still bound, per cent of control [1]: 81%
kinase still bound, per cent of control [2]: 82%
kinase still bound, per cent of control [3]: 77%
kinase still bound, per cent of control [4]: 52%
kinase still bound, per cent of control [5]: 51%
kinase still bound, per cent of control [6]: 81%
kinase still bound, per cent of control [7]: 83%
kinase still bound, per cent of control [8]: 73%
kinase still bound, per cent of control [9]: 64%
kinase still bound, per cent of control [10]: 37%
kinase still bound, per cent of control [11]: 67%
kinase still bound, per cent of control [12]: 59%
kinase still bound, per cent of control [13]: 69%
kinase still bound, per cent of control [14]: 83%
kinase still bound, per cent of control [15]: 93%
kinase still bound, per cent of control [16]: 93%
kinase still bound, per cent of control [17]: 88%
kinase still bound, per cent of control [18]: 83%
kinase still bound, per cent of control [19]: 100%

C=CC(=O)Nc1cc(-n2c(=O)ccc3cnc4ccc(-c5cn[nH]c5)cc4c32)ccc1C
kinase still bound, per cent of control [1]: 39%
kinase still bound, per cent of control [2]: 64%
kinase still bound, per cent of control [3]: 58%
kinase still bound, per cent of control [4]: 79%
kinase still bound, per cent of control [5]: 22%
kinase still bound, per cent of control [6]: 53%
kinase still bound, per cent of control [7]: 100%
kinase still bound, per cent of control [8]: 2.4%
kinase still bound, per cent of control [9]: 18%
kinase still bound, per cent of control [10]: 1.6%
kinase still bound, per cent of control [11]: 5.8%
kinase still bound, per cent of control [12]: 96%
kinase still bound, per cent of control [13]: 66%
kinase still bound, per cent of control [14]: 18%
kinase still bound, per cent of control [15]: 23%
kinase still bound, per cent of control [16]: 21%
kinase still bound, per cent of control [17]: 13%
kinase still bound, per cent of control [18]: 0.45%
kinase still bound, per cent of control [19]: 21%

COc1cc2ncnc(Nc3cccc(Cl)c3)c2cc1OC
kinase still bound, per cent of control [1]: 6.6%
kinase still bound, per cent of control [2]: 1.4%
kinase still bound, per cent of control [3]: 3.3%
kinase still bound, per cent of control [4]: 0.9%
kinase still bound, per cent of control [5]: 0.1%
kinase still bound, per cent of control [6]: 1.4%
kinase still bound, per cent of control [7]: 56%
kinase still bound, per cent of control [8]: 24%
kinase still bound, per cent of control [9]: 35%
kinase still bound, per cent of control [10]: 7.2%
kinase still bound, per cent of control [11]: 38%
kinase still bound, per cent of control [12]: 49%
kinase still bound, per cent of control [13]: 16%
kinase still bound, per cent of control [14]: 60%
kinase still bound, per cent of control [15]: 98%
kinase still bound, per cent of control [16]: 71%
kinase still bound, per cent of control [17]: 95%
kinase still bound, per cent of control [18]: 46%
kinase still bound, per cent of control [19]: 82%

COc1cc2c(Nc3ccc(NC(=O)c4ccccc4)cc3)ncnc2cc1OCCCN1CCOCC1
kinase still bound, per cent of control [1]: 45%
kinase still bound, per cent of control [2]: 32%
kinase still bound, per cent of control [3]: 36%
kinase still bound, per cent of control [4]: 0.5%
kinase still bound, per cent of control [5]: 6.2%
kinase still bound, per cent of control [6]: 41%
kinase still bound, per cent of control [7]: 43%
kinase still bound, per cent of control [8]: 45%
kinase still bound, per cent of control [9]: 4%
kinase still bound, per cent of control [10]: 6%
kinase still bound, per cent of control [11]: 42%
kinase still bound, per cent of control [12]: 1.9%
kinase still bound, per cent of control [13]: 0%
kinase still bound, per cent of control [14]: 68%
kinase still bound, per cent of control [15]: 19%
kinase still bound, per cent of control [16]: 98%
kinase still bound, per cent of control [17]: 24%
kinase still bound, per cent of control [18]: 100%
kinase still bound, per cent of control [19]: 17%

CCCS(=O)(=O)Nc1ccc(F)c(C(=O)c2c[nH]c3ncc(Cl)cc23)c1F
kinase still bound, per cent of control [1]: 46%
kinase still bound, per cent of control [2]: 46%
kinase still bound, per cent of control [3]: 93%
kinase still bound, per cent of control [4]: 72%
kinase still bound, per cent of control [5]: 34%
kinase still bound, per cent of control [6]: 85%
kinase still bound, per cent of control [7]: 0.95%
kinase still bound, per cent of control [8]: 68%
kinase still bound, per cent of control [9]: 17%
kinase still bound, per cent of control [10]: 28%
kinase still bound, per cent of control [11]: 49%
kinase still bound, per cent of control [12]: 46%
kinase still bound, per cent of control [13]: 0.05%
kinase still bound, per cent of control [14]: 100%
kinase still bound, per cent of control [15]: 92%
kinase still bound, per cent of control [16]: 100%
kinase still bound, per cent of control [17]: 90%
kinase still bound, per cent of control [18]: 91%
kinase still bound, per cent of control [19]: 86%

NC(=O)Nc1cc(-c2cccc(F)c2)sc1C(=O)N[C@@H]1CCCNC1
kinase still bound, per cent of control [1]: 0%
kinase still bound, per cent of control [2]: 0%
kinase still bound, per cent of control [3]: 4.2%
kinase still bound, per cent of control [4]: 0%
kinase still bound, per cent of control [5]: 1.5%
kinase still bound, per cent of control [6]: 4.6%
kinase still bound, per cent of control [7]: 0.3%
kinase still bound, per cent of control [8]: 0%
kinase still bound, per cent of control [9]: 0.1%
kinase still bound, per cent of control [10]: 0%
kinase still bound, per cent of control [14]: 62%
kinase still bound, per cent of control [15]: 16%
kinase still bound, per cent of control [16]: 100%
kinase still bound, per cent of control [17]: 36%
kinase still bound, per cent of control [18]: 100%
kinase still bound, per cent of control [19]: 83%

COc1cc(C(=O)N2CCC(N3CCN(C)CC3)CC2)ccc1Nc1ncc2c(n1)N(C)c1ccccc1C(=O)N2C
kinase still bound, per cent of control [1]: 80%
kinase still bound, per cent of control [2]: 94%
kinase still bound, per cent of control [3]: 72%
kinase still bound, per cent of control [4]: 86%
kinase still bound, per cent of control [5]: 100%
kinase still bound, per cent of control [6]: 84%
kinase still bound, per cent of control [7]: 95%
kinase still bound, per cent of control [8]: 100%
kinase still bound, per cent of control [9]: 97%
kinase still bound, per cent of control [10]: 73%
kinase still bound, per cent of control [11]: 72%
kinase still bound, per cent of control [12]: 81%
kinase still bound, per cent of control [13]: 100%
kinase still bound, per cent of control [14]: 89%
kinase still bound, per cent of control [15]: 98%
kinase still bound, per cent of control [16]: 100%
kinase still bound, per cent of control [17]: 71%
kinase still bound, per cent of control [18]: 38%
kinase still bound, per cent of control [19]: 91%

CCN1CCN(Cc2ccc(NC(=O)c3ccc(C)c(/C=C/c4cnc5[nH]ccc5c4OC)c3)cc2C(F)(F)F)CC1
kinase still bound, per cent of control [1]: 1%
kinase still bound, per cent of control [2]: 2.2%
kinase still bound, per cent of control [3]: 3.8%
kinase still bound, per cent of control [4]: 0%
kinase still bound, per cent of control [5]: 0%
kinase still bound, per cent of control [6]: 0.55%
kinase still bound, per cent of control [7]: 0.6%
kinase still bound, per cent of control [8]: 0.35%
kinase still bound, per cent of control [9]: 0.05%
kinase still bound, per cent of control [10]: 0.25%
kinase still bound, per cent of control [11]: 0.65%
kinase still bound, per cent of control [12]: 0.05%
kinase still bound, per cent of control [13]: 0%
kinase still bound, per cent of control [14]: 100%
kinase still bound, per cent of control [15]: 92%
kinase still bound, per cent of control [16]: 100%
kinase still bound, per cent of control [17]: 90%
kinase still bound, per cent of control [18]: 100%

COc1cc2ncn(-c3cc(OCc4ccccc4C(F)(F)F)c(C(N)=O)s3)c2cc1OC
kinase still bound, per cent of control [1]: 60%
kinase still bound, per cent of control [2]: 81%
kinase still bound, per cent of control [4]: 98%
kinase still bound, per cent of control [5]: 100%
kinase still bound, per cent of control [6]: 63%
kinase still bound, per cent of control [7]: 16%
kinase still bound, per cent of control [8]: 26%
kinase still bound, per cent of control [11]: 1.4%
kinase still bound, per cent of control [12]: 21%
kinase still bound, per cent of control [13]: 21%
kinase still bound, per cent of control [14]: 100%
kinase still bound, per cent of control [15]: 54%
kinase still bound, per cent of control [16]: 90%
kinase still bound, per cent of control [17]: 36%
kinase still bound, per cent of control [18]: 24%
kinase still bound, per cent of control [19]: 96%

From the kinase profiling compilation of Christmann-Franck et al. (2016)
